Assay results reported in US8119569B2, “Benzoylpyrazole compounds, process for their production and herbicides containing them” (Ishihara Sangyo Kaisha, Ltd., priority 2006, dated 2012).

Experiments:
Assay type in all cases: in vivo
[1] = system: velvetleaf (Abutilon theophrasti MEDIC.); test: Test Example 1: foliar treatment, upland pot; conditions: 21st day after application
Text: Upland field soil was put into a 1/170,000 hectare pot, and seeds of various plants were sown. […] The spray solutions thus prepared were applied for foliar treatment by a small sprayer.

[2] = system: barnyardgrass (Echinochloa crus-galli L.); test: Test Example 1: foliar treatment, upland pot; conditions: 21st day after application
Text: (§1) Upland field soil was put into a 1/170,000 hectare pot, and seeds of various plants were sown. When the respective plants reached predetermined leaf stage ((1) barnyardgrass (Echinochloa crus-galli L.): 1.0 to 3.3 leaf stage, (2) crabgrass (Digitaria sanguinalis L.): 1.2 to 3.0 leaf stage, (3) green foxtail (Setaria viridis L.): 1.5 to 3.3 leaf stage, (4) redroot pigweed (Amaranthus retroflexus L.): 0.1 to 2.0 leaf stage, (5) prickly sida (Sida spinosa L.): cotyledon stage to 2.0 leaf stage, (6) velvetleaf (Abutilon theophrasti MEDIC.): 0.1 to 2.0 leaf stage, (7) rice (Oryza sativa L.): 1.3 to 3.0 leaf stage, (8) corn (Zea mays L.): 2.5 to 3.4 leaf stage, and (9) soybean (Glycine max Merr.): primary leaf stage to 0.3 leaf stage), wettable powders or emulsifiable concentrates of the compounds of the present invention prepared in accordance with a conventional preparation method, were weighed so that the active ingredients became the prescribed amounts, and diluted with water in an amount corresponding to 500 liter per 1 hectare (containing 0.1 vol % of an agricultural spreader (“KUSARINOH”, manufactured by NIHON NOHYAKU CO., LTD.)). The spray solutions thus prepared were applied for foliar treatment by a small sprayer.

corn (Zea mays L.) [3] = test: Test Example 1: foliar treatment, upland pot; conditions: 21st day after application, crop
Text: as §1

[4] = system: crabgrass (Digitaria sanguinalis L.); test: Test Example 1: foliar treatment, upland pot; conditions: 21st day after application
Text: as §1

[5] = system: green foxtail (Setaria viridis L.); test: Test Example 1: foliar treatment, upland pot; conditions: 21st day after application
Text: as §1

[6] = system: prickly sida (Sida spinosa L.); test: Test Example 1: foliar treatment, upland pot; conditions: 21st day after application
Text: as §1

[7] = system: redroot pigweed (Amaranthus retroflexus L.); test: Test Example 1: foliar treatment, upland pot; conditions: 21st day after application
Text: as §1

rice (Oryza sativa L.) [8] = test: Test Example 1: foliar treatment, upland pot; conditions: 21st day after application, crop
Text: as §1

[9] = system: soybean (Glycine max Merr.); test: Test Example 1: foliar treatment, upland pot; conditions: 21st day after application, crop
Text: as §1

[10] = system: barnyardgrass (Echinochloa crus-galli L.); test: Test Example 2: soil application on the day after sowing; conditions: 250 g/ha, 19th to 22nd day after application
Text: (§2) Upland field soil was put into a 1/170,000 hectare pot, and seeds of various plants (barnyardgrass (Echinochloa crus-galli L.), crabgrass (Digitaria sanguinalis L.), green foxtail (Setaria viridis L.), redroot pigweed (Amaranthus retroflexus L.), prickly sida (Sida spinosa L.), velvetleaf (Abutilon theophrasti MEDIC.), rice (oryza sativa L.), corn (Zea mays L.) and soybean (Glycine max Merr.)) were sown. On the day after sowing, wettable powders or emulsifiable concentrates of the compounds of the present invention prepared in accordance with a conventional preparation method, were weighed so that the active ingredients became the prescribed amounts, and diluted with water in an amount corresponding to 500 liter per 1 hectare, followed by soil application with a small sprayer.

corn (Zea mays L.) [11] = test: as above; conditions: 250 g/ha, 19th to 22nd day after application, crop
Text: as §2

[12] = system: crabgrass (Digitaria sanguinalis L.); test: as above; conditions: 250 g/ha, 19th to 22nd day after application
Text: as §2

[13] = system: green foxtail (Setaria viridis L.); test: as above; conditions: 250 g/ha, 19th to 22nd day after application
Text: as §2

[14] = system: prickly sida (Sida spinosa L.); test: as above; conditions: 250 g/ha, 19th to 22nd day after application
Text: as §2

[15] = system: redroot pigweed (Amaranthus retroflexus L.); test: as above; conditions: 250 g/ha, 19th to 22nd day after application
Text: as §2

rice (Oryza sativa L.) [16] = test: as above; conditions: 250 g/ha, 19th to 22nd day after application, crop
Text: as §2

[17] = system: soybean (Glycine max Merr.); test: as above; conditions: 250 g/ha, 19th to 22nd day after application, crop
Text: as §2

[18] = system: velvetleaf (Abutilon theophrasti MEDIC.); test: as above; conditions: 250 g/ha, 19th to 22nd day after application
Text: as §2

[19] = system: Japanese bulrush (Scirpus juncoides); test: Test Example 4: paddy field pot, water application; conditions: 63 g/ha, 14th day after application
Text: (§3) Paddy field soil was put into a 1/1,000,000 hectare pot, and seeds of barnyardgrass (Echinochloa oryzicola vasing.) and Japanese bulrush (Scirpus juncoides) were sown and lightly covered with soil. Then, pot was left to stand in a greenhouse in a state irrigated to a water depth of from 0.5 to 1 cm, and next day or two days later, tubers of Japanese ribbon waparo (Sagittaria pygmaea) were planted. Then, the irrigated water depth was maintained to be from 3 to 4 cm, and when barnyardgrass and Japanese bulrush reached 0.5 leaf stage, and Japanese ribbon waparo reached primary leaf stage, a water diluted solution of a wettable powder or an emulsifieable concentrate of the compound of the present invention prepared in accordance with a conventional preparation method, was uniformly dropwise applied by a pipette so that the amount of active ingredients would be a prescribed amount. Further, paddy field soil was put into a 1/1,000,000 pot, followed by soil puddling to an irrigated water depth of from 3 to 4 cm. Next day, rice (Oryza sativa L.) (var.: Nihonbare) of two leaf stage was transplanted in a transplantation depth of 3 cm. On the 4th day after transplantation, the compound of the present invention was applied in the same manner as described above.

[20] = system: Japanese ribbon waparo (Sagittaria pygmaea); test: Test Example 4: paddy field pot, water application; conditions: 63 g/ha, 14th day after application
Text: as §3

[21] = system: barnyardgrass (Echinochloa oryzicola vasing.); test: Test Example 4: paddy field pot, water application; conditions: 63 g/ha, 14th day after application
Text: as §3

[22] = system: rice (Oryza sativa L.) (var.: Nihonbare); test: Test Example 4: paddy field pot, water application, transplanted rice; conditions: 63 g/ha, 21st day after application, crop
Text: as §3

corn (Zea mays L.) [23] = test: Test Example 3: foliar treatment, comparison with reference compounds; conditions: 4.0 to 4.3 leaf stage, crop
Text: (§4) Upland field soil was put into a 1/1,000,000 hectare pot, and seeds of various plants were sown. […] The spray solutions thus prepared were applied for foliar treatment by a small sprayer.

[24] = system: green foxtail (Setaria viridis L.); test: as above; conditions: 4.0 to 4.5 leaf stage; for inhibition at 3.5 g/ha / inhibition at 7 g/ha: Setaria viridis, 17th day after application, read-out: Growth inhibition rate (%) (17th day after application) Green foxtail
Text: as §4

[25] = system: guineagrass (Panicum maximum Jacq.); test: as above; conditions: 3.5 to 4.3 leaf stage; for inhibition at 3.5 g/ha: Megathyrsus maximus, 18th day after application, read-out: Growth inhibition rate (%) (18th day after application) Guineagrass
Text: as §4

[26] = system: velvetleaf (Abutilon theophrasti MEDIC.); test: as above; conditions: 3.3 to 4.3 leaf stage; for inhibition at 15 g/ha: Abutilon theophrasti, 22nd day after application, read-out: Growth inhibition rate (%) (22nd day after application) Velvet leaf
Text: as §4

SMILES | Growth inhibition rate (%) Barnyardgrass ([2]; 7 g/ha) | Growth inhibition rate (%) Corn (corn (Zea mays L.) [3]; 7 g/ha) | Growth inhibition rate (%) Crabgrass ([4]; 7 g/ha) | Growth inhibition rate (%) Green foxtail ([5]; 7 g/ha) | Growth inhibition rate (%) Prickly sida ([6]; 7 g/ha) | Growth inhibition rate (%) Redroot pigweed ([7]; 7 g/ha) | Growth inhibition rate (%) Rice (rice (Oryza sativa L.) [8]; 7 g/ha) | Growth inhibition rate (%) Soybean ([9]; 7 g/ha) | Growth inhibition rate (%) Barnyardgrass [10] | Growth inhibition rate (%) Corn (corn (Zea mays L.) [11]) | Growth inhibition rate (%) Crabgrass [12] | Growth inhibition rate (%) Green foxtail [13] | Growth inhibition rate (%) Prickly sida [14] | Growth inhibition rate (%) Redroot pigweed [15] | Growth inhibition rate (%) Rice (rice (Oryza sativa L.) [16]) | Growth inhibition rate (%) Soybean [17] | Growth inhibition rate (%) Velvetleaf [18] | Growth inhibition rate (%) Japanese bulrush [19] | Growth inhibition rate (%) Japanese ribbon waparo [20] | Growth inhibition rate (%) Barnyardgrass [21] | further results
CCOC(=O)OC(C)Oc1c(C(=O)c2ccc(S(C)(=O)=O)c(OCCOC)c2C)c(C)nn1C (racemic) [compound 11] | 90% | 0% | 90% | 90% | 10% | 80% | 80% | 70% | 100% | 0% | 100% | 100% | 40% | 100% | 100% | 20% | 70% | 100% | 60% | 98% | Growth inhibition rate (%) Velvetleaf ([1]; 7 g/ha): 60%; Growth inhibition rate (%) Rice [22]: 60%
CCCOC(=O)OC(C)Oc1c(C(=O)c2ccc(S(C)(=O)=O)c(OCCOC)c2C)cnn1C (racemic) [compound 19] | 95% | 0% | 90% | 100% | 30% | 95% | 80% | 80% | 100% | 0% | 100% | 100% | 60% | 100% | 100% | 40% | 98% | 95% | 95% | 100% | Growth inhibition rate (%) Velvetleaf ([1]; 7 g/ha): 95%; Growth inhibition rate (%) Rice [22]: 20%
CCOC(=O)OC(C)Oc1c(C(=O)c2ccc(S(C)(=O)=O)c(OCCOC)c2C)cnn1C (stereo not shown) [Compound No. 2, 1-(4-(3-(2-methoxyethoxy)-2-methyl-4-(methylsulfonyl)benzoyl)-1-methyl-1H-pyrazol-5-yloxy)ethyl ethylcarbonate] | 100% | 0% | 95% | 95% | 40% | 100% | 80% | 80% | 100% | 0% | 100% | 100% | 70% | 100% | 98% | 0% | 60% | 60% | 95% | 100% | Growth inhibition rate (%) Velvetleaf ([1]; 63 g/ha): 100%; Growth inhibition rate (%) Barnyardgrass ([2]; 63 g/ha): 100%; Growth inhibition rate (%) Corn (corn (Zea mays L.) [3]; 63 g/ha): 0%; Growth inhibition rate (%) Crabgrass ([4]; 63 g/ha): 100%; Growth inhibition rate (%) Green foxtail ([5]; 63 g/ha): 100%; Growth inhibition rate (%) Prickly sida ([6]; 63 g/ha): 85%; Growth inhibition rate (%) Redroot pigweed ([7]; 63 g/ha): 100%; Growth inhibition rate (%) Rice (rice (Oryza sativa L.) [8]; 63 g/ha): 70%; Growth inhibition rate (%) Soybean ([9]; 63 g/ha): 98%; Growth inhibition rate (%) (21st day after application) Corn (corn (Zea mays L.) [23]; 120 g/ha): 4%; Growth inhibition rate (%) (17th day after application) Green foxtail ([24]; 3.5 g/ha): 93%; Growth inhibition rate (%) (17th day after application) Green foxtail ([24]; 7 g/ha): 98%; Growth inhibition rate (%) (18th day after application) Guineagrass ([25]; 3.5 g/ha): 90%; Growth inhibition rate (%) (22nd day after application) Velvet leaf ([26]; 15 g/ha): 94%; Growth inhibition rate (%) Rice [22]: 50%
CCn1ncc(C(=O)c2ccc(S(C)(=O)=O)c(OCCOC)c2Cl)c1O [Reference Compound 1] | – | – | – | – | – | – | – | – | – | – | – | – | – | – | – | – | – | – | – | – | inhibition at 3.5 g/ha ([24]; 3.5 g/ha): 35%; inhibition at 7 g/ha ([24]; 7 g/ha): 55%; inhibition at 3.5 g/ha [25]: 0%; inhibition at 15 g/ha [26]: 20%
COCCOc1c(S(C)(=O)=O)ccc(C(=O)c2cnn(C(C)C)c2O)c1Cl [Reference Compound 2] | – | – | – | – | – | – | – | – | – | – | – | – | – | – | – | – | – | – | – | – | inhibition at 120 g/ha (corn (Zea mays L.) [23]; Zea mays, 21st day after application, read-out: Growth inhibition rate (%) (21st day after application) Corn): 28%; inhibition at 3.5 g/ha ([24]; 3.5 g/ha): 30%; inhibition at 7 g/ha ([24]; 7 g/ha): 45%; inhibition at 3.5 g/ha [25]: 0%; inhibition at 15 g/ha [26]: 40%
